According to ChEMBL document CHEMBL6121044, “Discovery of Novel Spirocyclic MAT2A Inhibitors Demonstrating High In Vivo Efficacy in MTAP-Null Xenograft Models” (J Med Chem, 2025):
≈ marks a conversion by molar mass, not a printed value.

Key:
HCT-116 = experiment: Antiproliferative activity against wild type human HCT-116 cells measured after 5 days by CTG assay; format: functional, cell-based; conditions: HCT-116, 120 h
[1] = Microsomal metabolic stability in mouse liver microsomes assessed as clearance; format: ADME, Microsome; conditions: read-out: CLH
[2] = Half life in male ICR mouse at 10 mg/kg, po and 2 mg/kg, iv measured upto 24 hrs; format: ADME, organism-based; conditions: in vivo
[3] = AUC (0 to infinity) in male ICR mouse at 10 mg/kg, po and 2 mg/kg, iv measured upto 24 hrs; format: ADME, organism-based; conditions: in vivo
[4] = Lipophilicity, log D of compound at pH 7.4 byHPLC method; format: physicochemical; conditions: buffer
[5] = target: T1, S-adenosylmethionine synthase isoform type-2 (Homo sapiens, UniProt P31153); experiment: Inhibition of MAT2A in wild type human HCT-116 cells assessed as inhibition of S-adenosylmethionine; format: cell-based
T1 sequence (P31153 whole entry, canonical isoform): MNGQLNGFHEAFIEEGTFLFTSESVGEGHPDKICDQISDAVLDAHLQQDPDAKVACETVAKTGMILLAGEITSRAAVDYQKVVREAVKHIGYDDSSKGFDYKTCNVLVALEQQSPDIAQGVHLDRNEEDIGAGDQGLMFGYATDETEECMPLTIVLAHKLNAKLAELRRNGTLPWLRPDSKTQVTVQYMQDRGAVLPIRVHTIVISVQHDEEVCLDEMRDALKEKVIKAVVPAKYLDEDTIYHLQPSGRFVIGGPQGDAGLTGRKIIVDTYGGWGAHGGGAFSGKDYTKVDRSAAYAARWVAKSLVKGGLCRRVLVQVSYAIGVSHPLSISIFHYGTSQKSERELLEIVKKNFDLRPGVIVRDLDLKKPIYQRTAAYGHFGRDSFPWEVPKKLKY

[6] = target: T1, S-adenosylmethionine synthase isoform type-2; experiment: Inhibition of MAT2A in wild type human HCT-116 cells assessed as inhibition of PRMT5-mediated symmetric […]-arginine (SDMA) level; format: cell-based
[7] = AUCinf in male Sprague-Dawley rat at 2 mg/kg, iv measured upto 24 hrs upto 24 hrs by LC-MS/MS analysis; format: ADME, organism-based; conditions: in vivo
[8] = AUCinf in male Sprague-Dawley rat at 10 mg/kg, po measured upto 24 hrs upto 24 hrs by LC-MS/MS analysis; format: ADME, organism-based; conditions: in vivo
[9] = Half life in male ICR mouse at 10 mg/kg, po measured upto 24 hrs by LC-MS/MS analysis; format: ADME, organism-based; conditions: in vivo
[10] = Half life in beagle dog at 10 mg/kg, po measured upto 24 hrs upto 24 hrs by LC-MS/MS analysis; format: ADME, organism-based, Canis lupus familiaris; conditions: in vivo
[11] = Oral bioavailability in male Sprague-Dawley rat at 10 mg/kg measured upto 24 hrs upto 24 hrs by LC-MS/MS analysis; format: ADME, organism-based; conditions: in vivo
[12] = Plasma protein binding in human assessed as unbound fraction; format: ADME, cell-free
[13] = Plasma protein binding in dog assessed as unbound fraction; format: ADME, cell-free, Canis lupus familiaris
[14] = Plasma protein binding in mouse assessed as unbound fraction; format: ADME, cell-free
[15] = Microsomal metabolic stability in human liver microsomes assessed as half life; format: ADME, Microsome
[16] = Microsomal metabolic stability in mouse liver microsomes assessed as half life; format: ADME, Microsome
[17] = Hepatic metabolic stability in dog hepatocyte assessed as half life; format: ADME, cell-based, Canis lupus familiaris; conditions: hepatocytes
[18] = Hepatic metabolic stability in rat hepatocyte assessed as half life; format: ADME, cell-based; conditions: hepatocytes
[19] = Solubility of the compound in FaSSGF; format: physicochemical
[20] = Lipophilicity, log P of the compound; format: physicochemical; conditions: octanol/water
[21] = Apparent permeability across apical to basolateral in human Caco-2 cells; format: ADME, cell-based; conditions: read-out: permeability
Cytochrome P450 1A2 = target: T2, Cytochrome P450 1A2 (Homo sapiens, UniProt P05177); experiment: Inhibition of CYP1A2 (unknown origin); format: ADME
T2 sequence (P05177 whole entry): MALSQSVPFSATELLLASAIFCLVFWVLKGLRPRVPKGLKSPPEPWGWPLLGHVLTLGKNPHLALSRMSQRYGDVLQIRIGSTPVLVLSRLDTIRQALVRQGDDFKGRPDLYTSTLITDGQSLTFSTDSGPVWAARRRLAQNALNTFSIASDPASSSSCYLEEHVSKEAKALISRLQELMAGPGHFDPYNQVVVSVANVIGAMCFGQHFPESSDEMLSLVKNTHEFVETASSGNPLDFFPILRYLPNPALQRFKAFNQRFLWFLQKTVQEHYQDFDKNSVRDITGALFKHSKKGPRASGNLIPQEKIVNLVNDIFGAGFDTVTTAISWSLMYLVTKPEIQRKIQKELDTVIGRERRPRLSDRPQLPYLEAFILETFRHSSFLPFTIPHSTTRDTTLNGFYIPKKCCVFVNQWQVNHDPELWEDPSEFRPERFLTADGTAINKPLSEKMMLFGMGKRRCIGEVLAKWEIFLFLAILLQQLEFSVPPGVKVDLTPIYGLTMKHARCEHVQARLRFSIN

Cytochrome P450 2C9 = Cytochrome P450 2C9 (Homo sapiens, UniProt P11712); experiment: Inhibition of CYP2C9 (unknown origin); format: ADME
Chain of Cytochrome P450 2C9 (P11712 whole entry): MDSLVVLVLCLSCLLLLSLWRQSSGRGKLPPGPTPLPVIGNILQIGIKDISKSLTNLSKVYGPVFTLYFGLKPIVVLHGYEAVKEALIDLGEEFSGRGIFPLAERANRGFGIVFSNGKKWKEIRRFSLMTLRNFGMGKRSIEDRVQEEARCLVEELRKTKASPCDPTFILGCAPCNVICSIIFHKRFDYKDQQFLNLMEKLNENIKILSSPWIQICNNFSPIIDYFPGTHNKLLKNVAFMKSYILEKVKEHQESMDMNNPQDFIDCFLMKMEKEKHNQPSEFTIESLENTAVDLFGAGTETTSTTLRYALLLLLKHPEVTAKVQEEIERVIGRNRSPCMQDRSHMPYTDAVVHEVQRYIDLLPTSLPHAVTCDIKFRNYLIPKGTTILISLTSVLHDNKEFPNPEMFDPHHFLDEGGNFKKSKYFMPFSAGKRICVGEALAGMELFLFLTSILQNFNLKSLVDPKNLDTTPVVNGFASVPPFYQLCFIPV

Cytochrome P450 2C19 = Cytochrome P450 2C19 (Homo sapiens, UniProt P33261); experiment: Inhibition of CYP2C19 (unknown origin); format: ADME
Chain of Cytochrome P450 2C19 (P33261 whole entry): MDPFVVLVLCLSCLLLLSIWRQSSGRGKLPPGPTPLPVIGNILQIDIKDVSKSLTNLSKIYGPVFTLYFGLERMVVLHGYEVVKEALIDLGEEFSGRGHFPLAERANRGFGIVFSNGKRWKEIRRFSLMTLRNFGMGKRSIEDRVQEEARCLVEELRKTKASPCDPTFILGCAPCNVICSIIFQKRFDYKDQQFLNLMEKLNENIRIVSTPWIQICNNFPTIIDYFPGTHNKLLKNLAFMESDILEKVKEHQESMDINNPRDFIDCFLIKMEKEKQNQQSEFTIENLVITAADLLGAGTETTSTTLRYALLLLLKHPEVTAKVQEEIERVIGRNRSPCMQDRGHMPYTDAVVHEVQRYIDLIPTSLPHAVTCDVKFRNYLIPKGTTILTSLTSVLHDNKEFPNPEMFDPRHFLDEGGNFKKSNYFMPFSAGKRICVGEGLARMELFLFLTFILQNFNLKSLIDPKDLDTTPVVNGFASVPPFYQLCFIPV

Cytochrome P450 2D6 = Cytochrome P450 2D6 (Homo sapiens, UniProt P10635); experiment: Inhibition of CYP2D6 (unknown origin); format: ADME
Chain of Cytochrome P450 2D6 (P10635 whole entry): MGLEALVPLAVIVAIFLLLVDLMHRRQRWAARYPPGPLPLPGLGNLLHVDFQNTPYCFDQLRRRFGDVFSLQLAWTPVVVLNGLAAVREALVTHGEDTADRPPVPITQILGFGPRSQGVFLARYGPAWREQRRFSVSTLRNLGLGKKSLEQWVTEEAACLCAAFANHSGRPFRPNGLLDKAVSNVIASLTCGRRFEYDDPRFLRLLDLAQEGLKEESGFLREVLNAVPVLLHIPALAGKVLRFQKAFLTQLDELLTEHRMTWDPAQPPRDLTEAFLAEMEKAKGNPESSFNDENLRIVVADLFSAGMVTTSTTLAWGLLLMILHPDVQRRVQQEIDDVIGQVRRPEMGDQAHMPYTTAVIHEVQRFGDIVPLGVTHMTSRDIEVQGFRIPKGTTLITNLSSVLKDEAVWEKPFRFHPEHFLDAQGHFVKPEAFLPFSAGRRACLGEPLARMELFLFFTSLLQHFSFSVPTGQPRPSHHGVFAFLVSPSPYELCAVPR

[22] = target: Voltage-gated inwardly rectifying potassium channel KCNH2 (Homo sapiens, UniProt Q12809); experiment: Inhibition of hERG; format: toxicity
Chain of Voltage-gated inwardly rectifying potassium channel KCNH2 (Q12809 whole entry): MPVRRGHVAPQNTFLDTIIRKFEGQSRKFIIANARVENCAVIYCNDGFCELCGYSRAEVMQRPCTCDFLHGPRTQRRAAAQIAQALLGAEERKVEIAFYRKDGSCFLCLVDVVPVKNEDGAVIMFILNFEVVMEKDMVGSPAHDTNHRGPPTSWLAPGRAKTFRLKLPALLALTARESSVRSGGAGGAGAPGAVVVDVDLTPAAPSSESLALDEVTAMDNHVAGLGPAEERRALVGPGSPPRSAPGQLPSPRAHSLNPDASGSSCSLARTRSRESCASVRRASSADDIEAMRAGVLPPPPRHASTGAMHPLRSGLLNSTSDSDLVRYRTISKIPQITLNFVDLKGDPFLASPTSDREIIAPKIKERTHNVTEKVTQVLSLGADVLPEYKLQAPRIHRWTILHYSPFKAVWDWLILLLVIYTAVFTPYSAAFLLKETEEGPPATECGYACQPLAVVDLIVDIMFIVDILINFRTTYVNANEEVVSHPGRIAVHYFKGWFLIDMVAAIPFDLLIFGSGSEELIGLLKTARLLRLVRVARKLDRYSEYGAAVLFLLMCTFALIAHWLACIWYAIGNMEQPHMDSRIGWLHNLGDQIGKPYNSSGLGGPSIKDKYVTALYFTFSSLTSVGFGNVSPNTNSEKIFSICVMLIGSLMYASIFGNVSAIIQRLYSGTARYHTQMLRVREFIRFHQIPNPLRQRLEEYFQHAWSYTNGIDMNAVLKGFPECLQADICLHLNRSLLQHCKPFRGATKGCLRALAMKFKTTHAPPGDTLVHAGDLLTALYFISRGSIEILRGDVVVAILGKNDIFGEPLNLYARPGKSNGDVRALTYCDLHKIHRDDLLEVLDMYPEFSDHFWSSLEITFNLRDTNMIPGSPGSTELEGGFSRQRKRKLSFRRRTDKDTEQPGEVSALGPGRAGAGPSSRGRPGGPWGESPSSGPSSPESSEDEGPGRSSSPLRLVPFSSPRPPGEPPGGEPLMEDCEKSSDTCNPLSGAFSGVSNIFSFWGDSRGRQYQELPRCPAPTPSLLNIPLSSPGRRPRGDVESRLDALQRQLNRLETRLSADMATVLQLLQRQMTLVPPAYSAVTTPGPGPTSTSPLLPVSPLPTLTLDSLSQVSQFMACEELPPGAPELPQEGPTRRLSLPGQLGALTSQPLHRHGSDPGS

[23] = target: T3, UDP-glucuronosyltransferase 1A1 (Homo sapiens, UniProt P22309); experiment: Inhibition of UGT1A1 (unknown origin)
T3 sequence (P22309 whole entry): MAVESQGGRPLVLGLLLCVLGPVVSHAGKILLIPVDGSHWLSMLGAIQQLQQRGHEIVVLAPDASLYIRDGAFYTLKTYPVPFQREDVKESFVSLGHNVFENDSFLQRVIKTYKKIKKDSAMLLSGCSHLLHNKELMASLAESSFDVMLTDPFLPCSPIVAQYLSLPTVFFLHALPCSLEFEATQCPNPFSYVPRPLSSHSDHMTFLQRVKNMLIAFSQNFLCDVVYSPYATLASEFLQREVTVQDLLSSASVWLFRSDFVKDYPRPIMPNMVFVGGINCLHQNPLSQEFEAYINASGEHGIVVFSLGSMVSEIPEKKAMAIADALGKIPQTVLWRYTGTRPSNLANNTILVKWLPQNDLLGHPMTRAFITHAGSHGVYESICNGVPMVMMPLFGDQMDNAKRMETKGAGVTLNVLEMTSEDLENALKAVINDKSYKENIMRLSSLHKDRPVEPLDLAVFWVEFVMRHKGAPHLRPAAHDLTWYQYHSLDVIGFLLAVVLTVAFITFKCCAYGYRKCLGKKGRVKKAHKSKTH

[24] = Genotoxicity in Salmonella typhimurium TA100; format: toxicity; conditions: salmonella enterica subsp. enterica serovar typhimurium
[25] = Genotoxicity in Salmonella typhimurium TA102; format: toxicity; conditions: salmonella enterica subsp. enterica serovar typhimurium

IC50 (HCT-116) | CLint scaled [1] | half-life [2] | AUC(0-inf) [3] | logD [4] | IC50 [5] | IC50 [6] | AUC(0-inf) [8] | half-life [9] | half-life [10] | fraction unbound [12] | fraction unbound [13] | fraction unbound [14] | half-life [15] | half-life [16] | half-life [17] | half-life [18] | solubility [19] | logP [20] | Papp A→B [21] | SMILES | further results
> 10 µM | 37 mL/min/kg | 2.24 h | 24900 ng·h/mL | 1.59 | 0.002 µM | > 3 µM | 14500 ng·h/mL | 2.37 h | 4.47 h | 0.676 | 0.456 | 0.345 | > 3.1 h | > 2.46 h | > 3.61 h | > 3.61 h | 79.9 µM (≈ 27.5 µg/mL) | 1.65 | 5.12 ×10⁻⁶ cm/s | [2H]C([2H])([2H])NC1=NC(=O)[C@]2(CCc3ncccc32)c2cc(C(C)(F)F)ccc21 | AUC ([7]; iv, 2 mg/kg, 24 h): 2212 ng·h/mL; bioavailability ([11]; male, Sprague-Dawley): 135%; IC50 (Cytochrome P450 1A2): > 10 µM; IC50 (Cytochrome P450 2C9): > 10 µM; IC50 (Cytochrome P450 2C19): > 10 µM; IC50 (Cytochrome P450 2D6): > 10 µM; IC50 [22]: > 40 µM; IC50 [23]: > 50 µM; Activity [24]: Non-toxic; Activity [25]: Non-toxic
0.68 µM | < 29.3 mL/min/kg | 2.17 h | 39600 ng·h/mL | 1.81 | 0.003 µM | > 3 µM | 24300 ng·h/mL | 2.19 h | 6.09 h | 0.758 | 0.497 | 0.276 | > 3.1 h | > 3.1 h | > 3.61 h | > 3.61 h | 30.9 µM (≈ 10.8 µg/mL) | 1.85 | 13.6 ×10⁻⁶ cm/s | [2H]C([2H])([2H])NC1=NC(=O)[C@]2(CCc3ncccc32)c2cc(C(F)(F)F)ccc21 | AUC(0-inf) ([7]; male, Sprague-Dawley): 4990 ng·h/mL; F ([11]; po, 10 mg/kg, 24 h): 171%; IC50 (Cytochrome P450 1A2): > 10 µM; IC50 (Cytochrome P450 2C9): > 10 µM; IC50 (Cytochrome P450 2C19): > 10 µM; IC50 (Cytochrome P450 2D6): > 10 µM; IC50 [22]: > 40 µM; IC50 [23]: > 50 µM; Activity [24]: Non-toxic; Activity [25]: Non-toxic
